Data from patent publication US11807625B2, “Capsid inhibitors for the prevention of HIV” (Gilead Sciences, Inc., priority 2019, dated 2023).
“And” between values parts separate entries of the source, which are not always exact repeats. Equal entries are not always repeated.

Assay: PK of compound of Formula (Ia) after single subcutaneous dose of solution formulations in Wistar Han rats
Assay type: in vivo
Settings: SC 50 mg/kg; for concentration at 1 h / concentration at 3 h / concentration at 8 h: male, Wistar Han, rat, plasma, sc
Procedure: Formulations containing the compound of Formula (Ia), or a pharmaceutically acceptable salt thereof, were prepared as solutions and optionally administered subcutaneously or intramuscularly to rats, rabbits, and/or dogs.
(§1) A solution of about 400 mg/mL of the compound of Formula (Ia) having 19.14 w/w % water, 40.66 w/w % PEG 300, 35.20 w/w % of a sodium salt of a compound of Formula (Ia), and 5.00% ethanol was prepared. The solution was administered subcutaneously to male Wistar Han rats at a dose level of about 50 mg/kg and dose volume of 0.125 mL/kg and the pharmacokinetic (PK) profile was determined.
as §1, with “500” for “400”, “16.64” for “19.14”, “35.36” for “40.66”, “43.00” for “35.20”, “0.1” for “0.125”
(§2) A solution of about 400 mg/mL of the compound of Formula (Ia) having 17.00 w/w % water, 36.40 w/w % PEG 300, 35.20 w/w % of a sodium salt of a compound of Formula (Ia), 5.00 w/w % ethanol, and 6.40 w/w % poloxamer 188 was prepared. The solution was administered subcutaneously to male beagle dogs at a dose level of about 12 mg/kg and male Wistar Han rats at a dose level of about 50 mg/kg. The pharmacokinetic profiles were determined, and the results for dogs are summarized in Table and Table, while the results for rats are summarized in Table and Table below.
as §2, with “500” for “400”, “14.06” for “17.00”, “30.12” for “36.40”
A solution of about 300 mg/mL of the compound of Formula (Ia) having 23.33 w/w % water, 48.99 w/w % PEG 300, 26.47 w/w % of a sodium salt of a compound of Formula (Ia), and 1.21 w/w % poloxamer 188 was prepared. The solution was administered subcutaneously to male beagle dogs at a dose level of about 6 mg/kg and male Wistar Han rats at a dose level of about 50 mg/kg. The pharmacokinetic profiles were determined, and the results for dogs are summarized in Table and Table, while the results for rats are summarized in Table and Table below.
as §2, with “18.80” for “17.00”, “40.25” for “36.40”, “34.38” for “35.20”, “1.57” for “6.40”
as §2, with “500” for “400”, “16.29” for “17.00”, “34.88” for “36.40”, “41.92” for “35.20”, “1.91” for “6.40”
A solution of about 400 mg/mL of the compound of Formula (Ia) having 20.90 w/w % water, 44.72 w/w % PEG 300, and 34.38 w/w % of a sodium salt of a compound of Formula (Ia) was prepared. […]

CC(C)(C#Cc1ccc(-c2ccc(Cl)c3c(NS(C)(=O)=O)nn(CC(F)(F)F)c23)c([C@H](Cc2cc(F)cc(F)c2)NC(=O)Cn2nc(C(F)(F)F)c3c2C(F)(F)[C@@H]2C[C@H]32)n1)S(C)(=O)=O [compound of Formula (Ia)]
Plasma concentration (0 h, individual rats, solution R, 400 mg/mL): BLQ
Plasma concentration (0 h, individual rats, solution S, 500 mg/mL): BLQ
Plasma concentration (0 h, individual rats, solution T, 400 mg/mL): BLQ
Plasma concentration (0 h, individual rats, solution U, 500 mg/mL): BLQ
Plasma concentration (0 h, individual rats, solution V, 300 mg/mL): BLQ
Plasma concentration (1.00 h, individual rats, solution R, 400 mg/mL, 50 mg/kg): 59.3 nM and 42.4 nM
Plasma concentration (3.00 h, individual rats, solution R, 400 mg/mL, 50 mg/kg): 164 nM and 104 nM
Plasma concentration (3.00 h, individual rats, solution S, 500 mg/mL, 50 mg/kg): 72.7 nM and 118 nM
Plasma concentration (8.00 h, individual rats, solution R, 400 mg/mL, 50 mg/kg): 131 nM and 84.1 nM
Plasma concentration (8.00 h, individual rats, solution S, 500 mg/mL, 50 mg/kg): 82.0 nM and 127 nM
Plasma concentration (24.0 h, individual rats, solution R, 400 mg/mL, 50 mg/kg): 194 nM and 125 nM
Plasma concentration (24.0 h, individual rats, solution S, 500 mg/mL, 50 mg/kg): 138 nM and 133 nM
Plasma concentration (48.0 h, individual rats, solution R, 400 mg/mL, 50 mg/kg): 162 nM and 107 nM
Plasma concentration (48.0 h, individual rats, solution S, 500 mg/mL, 50 mg/kg): 158 nM and 119 nM
Plasma concentration (72.0 h, individual rats, solution R, 400 mg/mL, 50 mg/kg): 154 nM and 123 nM
Plasma concentration (72.0 h, individual rats, solution S, 500 mg/mL, 50 mg/kg): 166 nM and 120 nM
Plasma concentration (96.0 h, individual rats, solution R, 400 mg/mL, 50 mg/kg): 162 nM and 112 nM
Plasma concentration (96.0 h, individual rats, solution S, 500 mg/mL, 50 mg/kg): 149 nM and 107 nM
Plasma concentration (168 h, individual rats, solution R, 400 mg/mL, 50 mg/kg): 166 nM and 124 nM
Plasma concentration (168 h, individual rats, solution S, 500 mg/mL, 50 mg/kg): 121 nM and 82.3 nM
Plasma concentration (336 h, individual rats, solution R, 400 mg/mL, 50 mg/kg): 275 nM and 256 nM
Plasma concentration (336 h, individual rats, solution S, 500 mg/mL, 50 mg/kg): 277 nM and 140 nM and 131 nM
Plasma concentration (504 h, individual rats, solution R, 400 mg/mL, 50 mg/kg): 319 nM and 393 nM
Plasma concentration (504 h, individual rats, solution S, 500 mg/mL, 50 mg/kg): 211 nM and 235 nM
Plasma concentration (672 h, individual rats, solution R, 400 mg/mL, 50 mg/kg): 286 nM and 442 nM
Plasma concentration (672 h, individual rats, solution S, 500 mg/mL, 50 mg/kg): 254 nM and 227 nM
Plasma concentration (840 h, individual rats, solution R, 400 mg/mL, 50 mg/kg): 313 nM and 443 nM
Plasma concentration (840 h, individual rats, solution S, 500 mg/mL, 50 mg/kg): 221 nM and 250 nM
Plasma concentration (1008 h, individual rats, solution R, 400 mg/mL, 50 mg/kg): 318 nM and 442 nM
Plasma concentration (1008 h, individual rats, solution S, 500 mg/mL, 50 mg/kg): 479 nM and 207 nM and 215 nM
Plasma concentration (1334 h, individual rats, solution R, 400 mg/mL, 50 mg/kg): 266 nM and 421 nM
Plasma concentration (1334 h, individual rats, solution S, 500 mg/mL, 50 mg/kg): 254 nM and 248 nM
Plasma concentration (1680 h, individual rats, solution R, 400 mg/mL, 50 mg/kg): 233 nM and 328 nM
Plasma concentration (1680 h, individual rats, solution S, 500 mg/mL, 50 mg/kg): 216 nM and 189 nM
Plasma concentration (2016 h, individual rats, solution R, 400 mg/mL, 50 mg/kg): 181 nM and 227 nM
Plasma concentration (2016 h, individual rats, solution S, 500 mg/mL, 50 mg/kg): 158 nM and 133 nM
Plasma concentration (2352 h, individual rats, solution R, 400 mg/mL, 50 mg/kg): 182 nM
Plasma concentration (2352 h, individual rats, solution S, 500 mg/mL, 50 mg/kg): 170 nM and 119 nM
Plasma concentration (2688 h, individual rats, solution R, 400 mg/mL, 50 mg/kg): 146 nM and 147 nM
Plasma concentration (2688 h, individual rats, solution S, 500 mg/mL, 50 mg/kg): 148 nM and 126 nM
Plasma concentration (3024 h, individual rats, solution R, 400 mg/mL, 50 mg/kg): 118 nM and 111 nM
Plasma concentration (3360 h, individual rats, solution R, 400 mg/mL, 50 mg/kg): 116 nM and 84.7 nM
Plasma concentration (3696 h, individual rats, solution R, 400 mg/mL, 50 mg/kg): 117 nM and 109 nM and 58.4 nM
Plasma concentration (4032 h, individual rats, solution R, 400 mg/mL, 50 mg/kg): 109 nM and 136 nM and 59.5 nM
Plasma concentration (4704 h, individual rats, solution R, 400 mg/mL, 50 mg/kg): 84.4 nM and 92.7 nM and 29.9 nM
Plasma concentration (5376 h, individual rats, solution R, 400 mg/mL, 50 mg/kg): 62.6 nM and 90.4 nM and 20.9 nM
Plasma concentration (6048 h, individual rats, solution R, 400 mg/mL, 50 mg/kg): 27.4 nM and 48.6 nM and 14.6 nM
Plasma concentration (6720 h, individual rats, solution R, 400 mg/mL, 50 mg/kg): 22.7 nM and 45.8 nM and 10.4 nM
Plasma concentration (7392 h, individual rats, solution R, 400 mg/mL, 50 mg/kg): 13.5 nM and 28.6 nM and 7.43 nM
Plasma concentration (8064 h, individual rats, solution R, 400 mg/mL, 50 mg/kg): 8.39 nM and 24.1 nM and 4.52 nM
concentration at 1 h (50 mg/kg, 1.00 h, individual rats, solution R, 400 mg/mL): 67.6 nM
concentration at 1 h (50 mg/kg, 1.00 h, individual rats, solution U, 500 mg/mL): 42.6 nM
concentration at 1 h (50 mg/kg, 1.00 h, individual rats, solution V, 300 mg/mL): 51.4 nM
concentration at 1 h (50 mg/kg, 1.00 h, mean, n = 3 rats, solution R, 400 mg/mL): 56.4 nM
concentration at 1 h (50 mg/kg, 1.00 h, mean, n = 3 rats, solution S, 500 mg/mL): 49.2 nM
concentration at 1 h (50 mg/kg, 1.00 h, mean, n = 3 rats, solution V, 300 mg/mL): 51.4 nM
concentration at 1 h (50 mg/kg, 1.00 h, mean, n = 5 rats, solution T, 400 mg/mL): 56.4 nM
concentration at 1 h (50 mg/kg, 1.00 h, mean, n = 5 rats, solution U, 500 mg/mL): 50.5 nM
concentration at 3 h (50 mg/kg, 3.00 h, individual rats, solution R, 400 mg/mL): 128 nM
concentration at 3 h (50 mg/kg, 3.00 h, individual rats, solution S, 500 mg/mL): 87.6 nM
concentration at 3 h (50 mg/kg, 3.00 h, individual rats, solution T, 400 mg/mL): 128 nM
concentration at 3 h (50 mg/kg, 3.00 h, individual rats, solution V, 300 mg/mL): 141 nM
concentration at 3 h (50 mg/kg, 3.00 h, mean, n = 3 rats, solution R, 400 mg/mL): 132 nM
concentration at 3 h (50 mg/kg, 3.00 h, mean, n = 3 rats, solution S, 500 mg/mL): 92.8 nM
concentration at 3 h (50 mg/kg, 3.00 h, mean, n = 3 rats, solution V, 300 mg/mL): 116 nM
concentration at 3 h (50 mg/kg, 3.00 h, mean, n = 5 rats, solution T, 400 mg/mL): 135 nM
concentration at 3 h (50 mg/kg, 3.00 h, mean, n = 5 rats, solution U, 500 mg/mL): 110 nM
concentration at 8 h (50 mg/kg, 8.00 h, individual rats, solution R, 400 mg/mL): 120 nM
concentration at 8 h (50 mg/kg, 8.00 h, individual rats, solution S, 500 mg/mL): 92 nM
